Results published in patent EP2062893A1, “Fused imidazoles for cancer treatment” (Bayer Schering Pharma AG, priority 2007, dated 2009).

Columns and labels:
Assay type in all cases: cell-based
phosphorylated GSK3 = assay: Cellular pGSK3 assay (phospho-GSK3 Ser9 sandwich ELISA); conditions: Homo sapiens; MCF7 cells, 48h incubation, IC50 of pGSK3 inhibition
Description: In order to study the cellular activity of the compounds according to the present invention, an ELISA-based assay has been established for the phosphorylated protein glycogen synthetase kinase 3 (GSK3). The assay is based on a solid phase sandwich ELISA that detects endogenous levels of phosphorylated GSK3 using a phospho-GSK3 (Ser9) specific antibody (BioSource International, Inc.; Catalog #KHO0461). After incubation with cell lysates, the coated antibody captures the phosphorylated GSK3 protein. Following extensive washing, GSK3 polyclonal antibody is added to detect the captured phospho-GSK3 protein. Secondary antibody (anti-rabbit IgG-HRP) is then used to recognize the bound detection antibody. After the second incubation and washing to remove all the excess anti-rabbit IgG-HRP, a substrate solution is added, which is acted upon by the bound enzyme to produce color. The intensity of this colored product is directly proportional to the concentration of GSK-3β [pS9] present in the original specimen. MCF7 cells (ATCC HTB-22) were seeded into 96 well fate bottom plates at a density of 10000 cells/well. After 24 h 1 µl each of the compound dilutions (test compounds were dissolved as 10 mM solutions in dimethylsulfoxide (DMSO) and subsequently diluted) were added into each well of the 96 well plates and incubated for 48h at 37°C in a humidified athmosphere containing 5% CO2. Cells were harvested and lysed in cell extraction buffer (10 mM Tris, pH 7.4, 100 mM NaCl, 1 mM EDTA, 1 mM EGTA, 1 mM NaF, 20 mM Na4P2O7, 2 mM Na3VO4, 1% Triton X-100, 10vol% glycerol, 0.1vol% SDS, 0.5vol% deoxycholate, 1 mM phenylmethylsulfonylfluorid (PMSF)). The lysate were centrifuged for 10 min. at 4°C and the supernatant were transferred to a new tube. 50 µl of sample diluent (standard diluent buffer, Biosource) were added and 100 µl of cell lysate transferred into the tube and vortexed. 100 µl of each diluted cell lysate were added to the appropriate ELISA well plate and incubated for 3h at room temperature. The plates were washed 4 times with 1x wash buffer (Biosource). 50 µl of detection antibody (GSK3 (Ser9) detection antibody; BioSource) were added to each well and incubated for 30 min. at room temperature. The washing procedure was repeated between each step. 100µl of HRP-linked secondary antibody (anti-mouse IgG HRP-linked antibody) were added to each well and incubated for 30 min. at room temperature. 100µl of TMB substrate (0.05vol% 3,3',5,5' tetramethylbenzidine, 0.1vol% hydrogen peroxide, complex polypeptides in a buffered solution; Biosource) were added to each well and incubated for 30 min. at room temperature. Finally 100 µl of Stop solution (0.05vol% α and β unsaturated carbonyl compound) were added to each well and the plate were shaked gently for a few seconds. The absorbance was measured at λ = 450 nm (Wallac Victor2; Perkin Elmer, USA) within 30 min. after adding the stop solution. The analysis of the data was performed using a statistical program (Excel; Microsoft, USA) and the IC50 of pGSK3 inhibition was determined.

OvCAR3 cells = assay: Cellular proliferation / Cytotoxicity assay (Alamar Blue / Resazurin cell viability); conditions: Homo sapiens, OVCAR-3, 48h incubation, read-out: Anti-proliferative / Cytotoxic activity (OvCAR3 cells)
Description: Wells containing untreated control cells were filled with 200 µl DMEM (Dulbecco's Modified Eagle Medium) containing 0.5vol% v:v DMSO. The cells are then incubated with the substances for 48h at 37°C in a humidified atmosphere containing 5vol% CO2. To determine the viability of the cells, 20 µl of a Resazurin solution (90mg / I) are added. […] Viabilities are expressed as % values.

[1] = system: phosphorylated Akt protein; assay: Cellular PI3K / Akt pathway assay (phospho-Akt Ser473 sandwich ELISA); conditions: Homo sapiens; MCF7 cells, ß-Heregulin (20ng/ml) stimulation, 48h incubation
Description: In order to study the cellular activity of the compounds according to the present invention, an Enzyme Linked Immunosorbent Assay (ELISA)-based assay has been used specific phospho-AKT. The assay is based on a Sandwich ELISA kit (PathScan™ Phospho-Akt1 (Ser473); Cell Signaling, USA; #7160). The ELISA Kit detects endogenous levels of phosphorylated Akt protein. A phospho-Akt (Ser473) antibody (Cell Signaling, USA; #9271) has been coated onto the microwells. After incubation with cell lysates, the coated antibody captures the phosphorylated Akt protein. Following extensive washing, Akt1 monoclonal antibody (Cell Signaling, USA; #2967) is added to detect the captured phospho-Akt1 protein. HRP-linked anti-mouse antibody (HRP: horseradish peroxidase; Cell Signaling, USA; #7076) is then used to recognize the bound detection antibody. HRP substrate (= 3,3',5,5'-tetramethylbenzidine (TMB); Cell Signaling, USA; #7160) is added to develop colour. The magnitude of optical density for this developed color is proportional to the quantity of phosphorylated Akt protein. MCF7 cells (ATCC HTB-22) are seeded into 96 well fate bottom plates at a density of 10000 cells/well. 24 hours after seeding, the cells are serum starved using low-serum medium (IMEM media including 0,1% charcoal treated FCS (FCS: fetal calf serum)). […] To stimulate Akt phosphorylation, ß-Heregulin (20ng/ml ß-HRG) is added in parallel to the compounds. Wells containing unstimulated control cells (no ß-Heregulin stimulation) are incubated with or without the diluted compound. Wells containing untreated control cells (no compound) are filled with medium containing 0.5% v:v DMSO and are or are not stimulated with ß-Heregulin. Cells are harvested and lysed with brief sonification in 1x cell lysis buffer (20mM Tris (pH7.5), 150 mM NaCl, 1 mM ethylene diaminetetraacetate (EDTA), 1 mM ethylene glycolbis(2-aminoethyl)-N,N,N',N'-tetraacetic acid (EGTA), 1vol% Triton X-100, 2.5mM sodium pyrophosphate, 1 mM β-glycerolphosphate, 1 mM Na3VO4, 1µg/ml leupeptin). The lysate is centrifuged for 10 min. at 4°C and the supernatant is transferred to a new tube. 100 µl of sample diluent (0.1vol% Tween-20, 0.1vol% sodium azide in phosphate buffered saline (PBS)) are added to a microcentrifuge tube and 100 µl of cell lysate are transferred into the tube and vortexed. 100 µl of each diluted cell lysate are added to the appropriate ELISA well, and incubated overnight at 4°C. The plates are washed 4 times with 1x wash buffer (1vol% tween-20, 0.33vol% thymol, in PBS). Next 100 µl of detection antibody (Akt1 (2H10) monoclonal detection antibody; Cell Signaling, USA; #2967) are added to each well and incubation continued for 1h at 37°C. The washing procedure is repeated between each step. 100µl of secondary antibody (anti-mouse IgG HRP-linked antibody; Cell Signaling, USA; #7076) are added to each well and incubated for 30 min. at 37°C. Than, 100µl of TMB substrate (0.05% 3,3',5,5' tetramethylbenzidine, 0.1 % hydrogen peroxide, complex polypeptides in a buffered solution; Cell Signaling, USA; #7160) are added to each well and incubated for 30 min. at 25°C. Finally 100 µl of STOP solution (0.05vol% α and β unsaturated carbonyl compound) are added to each well and the plate are shaked gently. The absorbance is measured at λ =450 nm (Wallac Victor2; Perkin Elmer, USA) within 30 min. after adding the STOP solution. The analysis of the data is performed using a statistical program (Excel; Microsoft, USA). Preferred compounds show an inhibitory activity towards Akt phosphorylation below 10µM.

Row | SMILES | IC50 (phosphorylated GSK3) [µM] | IC50 (OvCAR3 cells) [µM] | IC50 [1] [µM]
1 | COc1nccn2c(-c3ccccc3)c(-c3ccc(CN4CCC(c5n[nH]c(-c6ccccn6)n5)CC4)cc3)nc12 [Example 27, 8-methoxy-3-phenyl-2-(4-{[4-(5-pyridin-2-yl-1,2,4-triazol-3-yl)piperidin-1-yl]methyl}phenyl)imidazo[1,2-a]pyrazine] | 1 to 10 | < 10 | < 1
2 | Fc1ccc2nc(-c3ccc(CN4CCC(c5n[nH]c(-c6ccccn6)n5)CC4)cc3)c(-c3ccccc3)n2c1 [Example 22, 6-fluoro-3-phenyl-2-(4-{[4-(5-pyridin-2-yl-1,2,4-triazol-3-yl)piperidin-1-yl]methyl}phenyl)imidazo[1,2-a]pyridine] | 1 to 10 | < 10 | < 1
3 | c1ccc(-c2c(-c3ccc(CN4CCC(c5n[nH]c(-c6ccccn6)n5)CC4)cc3)nc3scnn23)cc1 [Example 11, 5-phenyl-6-(4-{[4-(5-pyridin-2-yl-1,2,4-triazol-3-yl)piperidin-1-yl]methyl}phenyl)imidazo[2,1-b][1,3,4]thiadiazole] | 1 to 10 | < 10 | < 1
4 | c1ccc(-c2nc(C3CCN(Cc4ccc(-c5nc6ncccn6c5-c5ccsc5)cc4)CC3)n[nH]2)nc1 [Example 34, 2-(4-{[4-(5-pyridin-2-yl-1,2,4-triazol-3-yl)piperidin-1-yl]methyl}phenyl)-3-(3-thienyl)imidazo[1,2-a]pyrimidine] | < 1 | < 10 | < 1
5 | Cc1cccn2c(-c3ccccc3)c(-c3ccc(CN4CCC(c5n[nH]c(-c6ccccn6)n5)CC4)cc3)nc12 [Example 8, 8-methyl-3-phenyl-2-(4-{[4-(5-pyridin-2-yl-1,2,4-triazol-3-yl)piperidin-1-yl]methyl}phenyl)imidazo[1,2-a]pyridine] | 1 to 10 | < 10 | < 1
6 | c1ccc(-c2c(-c3ccc(CN4CCC(c5n[nH]c(-c6ccccn6)n5)CC4)cc3)nc3cnccn23)cc1 [Example 37, 3-phenyl-2-(4-{[4-(5-pyridin-2-yl-1,2,4-triazol-3-yl)piperidin-1-yl]methyl}phenyl)imidazo[1,2-a]pyrazine] | 1 to 10 | < 10 | < 1
7 | Fc1ccc(-c2c(-c3ccc(CN4CCC(c5n[nH]c(-c6ccccn6)n5)CC4)cc3)nc3ccccn23)cc1 [Example 9, 3-(4-fluorophenyl)-2-(4-{[4-(5-pyridin-2-yl-1,2,4-triazol-3-yl)piperidin-1-yl]methyl}phenyl)imidazo[1,2-a]pyridine] | 1 to 10 | > 10 | 1 to 10
8 | Brc1ccc2nc(-c3ccc(CN4CCC(c5n[nH]c(-c6ccccn6)n5)CC4)cc3)c(-c3ccccc3)n2c1 [Example 6, 6-bromo-3-phenyl-2-(4-{[4-(5-pyridin-2-yl-1,2,4-triazol-3-yl)piperidin-1-yl]methyl}phenyl)imidazo[1,2-a]pyridine] | 1 to 10 | < 10 | < 1
9 | COc1cccn2c(-c3ccccc3)c(-c3ccc(CN4CCC(c5n[nH]c(-c6ccccn6)n5)CC4)cc3)nc12 [Example 13, 8-methoxy-3-phenyl-2-(4-{[4-(5-pyridin-2-yl-1,2,4-triazol-3-yl)piperidin-1-yl]methyl}phenyl)imidazo[1,2-a]pyridine] | 1 to 10 | < 10 | < 1
10 | COc1ccc(-c2c(-c3ccc(CN4CCC(c5n[nH]c(-c6ccccn6)n5)CC4)cc3)nc3ncccn23)cc1 [Example 20, 3-(4-methoxyphenyl)-2-(4-{[4-(5-pyridin-2-yl-1,2,4-triazol-3-yl)piperidin-1-yl]methyl}phenyl)imidazo[1,2-a]pyrimidine] | > 10 | > 10 | > 10
11 | COc1ccn2c(-c3ccccc3)c(-c3ccc(CN4CCC(c5n[nH]c(-c6ccccn6)n5)CC4)cc3)nc2n1 [Example 24, 7-methoxy-3-phenyl-2-(4-{[4-(5-pyridin-2-yl-1,2,4-triazol-3-yl)piperidin-1-yl]methyl}phenyl)imidazo[1,2-a]pyrimidine] | < 1 | < 10 | < 1
12 | Clc1cnc2nc(-c3ccc(CN4CCC(c5n[nH]c(-c6ccccn6)n5)CC4)cc3)c(-c3ccccc3)n2c1 [Example 21, 6-chloro-3-phenyl-2-(4-{[4-(5-pyridin-2-yl-1,2,4-triazol-3-yl)piperidin-1-yl]methyl}phenyl)imidazo[1,2-a]pyrimidine] | 1 to 10 | < 10 | < 1
13 | COc1ccc2nc(-c3ccc(CN4CCC(c5n[nH]c(-c6ccccn6)n5)CC4)cc3)c(-c3ccccc3)n2n1 [Example 32, 6-methoxy-3-phenyl-2-(4-{[4-(5-pyridin-2-yl-1,2,4-triazol-3-yl)piperidin-1-yl]methyl}phenyl)imidazo[1,2-b]pyridazine] | 1 to 10 | < 10 | < 1
14 | Fc1cccc(-c2c(-c3ccc(CN4CCC(c5n[nH]c(-c6ccccn6)n5)CC4)cc3)nc3ccccn23)c1 [Example 14, 3-(3-fluorophenyl)-2-(4-{[4-(5-pyridin-2-yl-1,2,4-triazol-3-yl)piperidin-1-yl]methyl}phenyl)imidazo[1,2-a]pyridine] | 1 to 10 | < 10 | < 1
